Experimental findings from patent US20100204202A1, “DRUG FOR ALLEVIATING MOTOR COMPLICATIONS OR PSYCHIATRIC SYMPTOMS OF PARKINSON'S DISEASE” (Asubio Pharma Co., Ltd., priority 2007, published 2010) are described below.

Test [1] concerns the target T1, rat serotonin 1A receptors (Rattus norvegicus, UniProt P19327).
T1 construct: Each rat was decapitated and the hippocampus was quickly removed; from tissue; host or cells: hippocampus of male Wistar rats
T1 sequence (P19327 1-422): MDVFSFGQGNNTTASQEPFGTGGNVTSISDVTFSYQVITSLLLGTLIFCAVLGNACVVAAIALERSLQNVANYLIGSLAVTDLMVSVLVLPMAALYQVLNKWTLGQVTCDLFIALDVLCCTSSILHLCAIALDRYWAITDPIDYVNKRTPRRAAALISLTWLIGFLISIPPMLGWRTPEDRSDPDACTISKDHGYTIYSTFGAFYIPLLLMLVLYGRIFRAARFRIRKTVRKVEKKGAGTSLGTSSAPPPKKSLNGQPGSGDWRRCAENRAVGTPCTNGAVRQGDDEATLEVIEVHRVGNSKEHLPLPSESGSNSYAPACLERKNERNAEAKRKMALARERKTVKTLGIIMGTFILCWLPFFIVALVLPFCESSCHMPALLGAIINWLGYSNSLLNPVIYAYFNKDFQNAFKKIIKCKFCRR
Briefly: Adenylate cyclase inhibition test via rat serotonin 1A receptors (full agonist-partial agonist judgment test), rat hippocampus membranes. Format: biochemical. As to conditions: for inhibition: read-out: maximum inhibitory reaction of adenylate cyclase activity. How it is done: For the test, Wistar male rats supplied by Shimizu Laboratory Supplies were used (9 to 15 weeks old). Each rat was decapitated and the hippocampus was quickly removed. It was homogenized in 10 volumes of buffer (i.e., 25 mM Tris-HCl, 1 mM EGTA, 5 mM EDTA, 5 mM DTT, 300 mM sucrose, 100 KIU/ml aprotinin, pH 7.4). This was then centrifuged at 500×g, 4° C. for 5 minutes, the supernatant was further centrifuged at 39,000×g, 4° C. for 10 minutes, and the residue was used as the rat hippocampus membrane specimen. The rat hippocampus membrane specimen was diluted by a buffer to 20 to 90 μg/mL of protein, then 50 μL of this cell membrane suspension was added to a 200 μL assay buffer containing each test sample (25 mM Tris-HCl, 100 mM NaCl, 2 mM MgCl2. 0.25 mM ATP, 5 mM phosphocreatine, 10 μg/mL creatine phosphokinase, 0.2 mM IBMX, 10 μM GTP, 10 μM forskolin, pH 7.4) and allowed to react at 30° C. for 5 minutes. 0.2N HCl was added in 250 μL to stop the reaction, then the cAMP produced was assayed by the radioimmunoassay method. […] Note that the adenylate cyclase activity was measured using as an indicator the amount of cAMP produced by the same enzyme. The rate of inhibition by the serotonin 1A receptor agonist was found using the amount of production due to forskolin (10 μM) stimulus as 100%.

Test [2] has as its system Parkinson's disease model rats. The experiment in a line: Hyperkinesia of the forelimbs and shortening of rotational behavior duration induced by repeated doses of levodopa. Format: in vivo, rat. From the text: In rats with unilateral nigrostriatal dopamine nerve destruction generally used as Parkinson's disease animal models, it became clear that by administering levodopa by repeated dosage for about 5 weeks, behavior resembling the symptoms of advanced stage Parkinson's disease appeared. That is, in Parkinson's disease model rats prepared in the same way as in Example 4, along with repeated doses of levodopa, abnormal behavior such as involuntary extending of the forelimb or opening or closing of the hand, up-and-down movement of the wrist, choreiform tremor in the forelimb on the opposite side of microinjection of 6-hydroxydopamine was observed (FIG. 3). This abnormal behavior is reported by Steece-Collier et al. (Steece-Collier K. et al., “Embryonic mesencephalic grafts increase levodopa-induced forelimb hyperkinesia in parkinsonian rats”, Movement Disorders, 2003, 18, p. 1442-1454) as hyperkinesia of the forelimbs.
This appears dependent on the period of repeated doses of levodopa and reportedly is similar to clinical dyskinesia. […] Bibbiani et al. (Bibbiani F. et al., “Serotonin 5-HT1A agonist improves motor complications in rodent and primate parkinsonian models”, Neurology, 2001, 57, p. 1829-1834) report that in Parkinson's disease model rats, along with repeated doses of levodopa, a shortening of the rotational behavior duration is observed and that this phenomenon resembles the wearing off phenomenon in clinical studies.
That is, they treated each group by repeated doses of levodopa and repeated dosage of the tested substance for about 2 weeks (Monday to Friday) and observed the hyperkinesia of the forelimbs and rotational behavior after levodopa administration. Note that the SUN N4057 was subcutaneously administered right before levodopa administration, the sarizotan was orally administered about 20 minutes before levodopa dosage in accordance with above-mentioned known reports (Bibbiani F. et al., Neurology, 2001, 57, p. 1829-1834), and the Example Compound 4 of Japanese Patent Publication No. 2005-298402A was subcutaneously administered about 30 minutes before levodopa dosage in accordance with the above-mentioned Japanese Patent Publication No. 2005-298402A. Further, for the solvent, for SUN N4057 and Example Compound 4 of Japanese Patent Publication No. 2005-298402A, physiological saline was used.
In the same way as Example 4, Parkinson's disease model rats were prepared and the rats treated by repeated doses of levodopa (twice a day, Monday to Friday) for 5 weeks and measured for hyperkinesia of the forelimbs and rotational behavior. Further, based on the results of the hyperkinesia of the forelimbs and rotational behavior duration, the rats were assigned to the groups so as to prevent any significant difference between them, then the effects of the tested substances on these behaviors resembling symptoms of advanced stage Parkinson's disease patients were compared and studied. […] Note that compound Ib (0.3, 1 mg/kg) and compound Ic (0.3, 1 mg/kg) were both intraperitoneally administered right before levodopa administration. For the solvent, physiological saline was used.

Test [3] has as its system rats. Briefly: Forced swimming method (anti-depressive action). Format: in vivo, rat. The settings on record: 10 mg/kg i.p. From the text:
For the test, Crl: CD(SD) male rats supplied by Charles River Japan were used (6 weeks old at start of test). For the forced swimming test, the method of the improved type reported by Lucki et al. (Lucki I., “The forced swimming test as a model for core and component behavioral effects of antidepressant drugs”, Behavioural Pharmacology, 1997, 8, p. 523-532; Cryan J. F. et al., “Assessing antidepressant activity in rodents: recent developments and future needs”, TRENDS in Pharmacological Sciences, 2002, 23, p. 238-245) was used. On day 1, each rat was placed in a cylinder filled with water (height 45 cm×diameter 30 cm, water depth 30 cm, water temperature 23° C., water depth set to depth by which back legs and tail of rat will not touch the bottom). The rat was taken out after 15 minutes. At this time, the immobility period (seconds) of minutes 10-15 (5 minutes) was recorded. Based on the results, the rats were assigned to five groups so that there would be no difference among the groups. On day 2, each rat was placed in a cylinder filled with water the same as day 1 and the immobility period (seconds), swimming behavior period (seconds), and climbing behavior period (seconds) of minutes 0-5 (5 minutes) were measured. Note that the immobility period was defined as the minimum extent of movement for the rat to hold its head above the water, the swimming behavior as the swimming behavior circling around the inside of the cylinder in the horizontal direction, and the climbing behavior as the climbing behavior moving the forelimbs in the vertical direction along the cylinder walls to try to climb them. The tested substance was intraperitoneally administered 15 minutes after the end of swimming on day 1, and 4 hours and 30 minutes before swimming on day 2. Further, for the amount of locomotor activity, a measuring system (shape 48.8×48.8×30 cm, vertical 8 fractions, horizontal 8 fractions, for total of 64 fractions, Biomedica) set in a blacked out soundproof box was used to record the amount of locomotor activity of the rats at minutes 0-15 (15 minutes). Note that the dosages and timings of administration of the tested substances were set in the same way as the forced swimming test and the substance were intraperitoneally administered 24 hours, 4 hours, and 30 minutes before measurement of the amount of locomotor activity.

The test system of test [4] is rats. Briefly: Amount of locomotor activity. Format: in vivo, rat. The settings on record: 10 mg/kg i.p.; minutes 0-5. The text has this: For the test, Crl: CD(SD) male rats supplied by Charles River Japan were used (6 weeks old at start of test). For the forced swimming test, the method of the improved type reported by Lucki et al. (Lucki I., “The forced swimming test as a model for core and component behavioral effects of antidepressant drugs”, Behavioural Pharmacology, 1997, 8, p. 523-532; Cryan J. F. et al., “Assessing antidepressant activity in rodents: recent developments and future needs”, TRENDS in Pharmacological Sciences, 2002, 23, p. 238-245) was used. On day 1, each rat was placed in a cylinder filled with water (height 45 cm×diameter 30 cm, water depth 30 cm, water temperature 23° C., water depth set to depth by which back legs and tail of rat will not touch the bottom). The rat was taken out after 15 minutes. At this time, the immobility period (seconds) of minutes 10-15 (5 minutes) was recorded. Based on the results, the rats were assigned to five groups so that there would be no difference among the groups. On day 2, each rat was placed in a cylinder filled with water the same as day 1 and the immobility period (seconds), swimming behavior period (seconds), and climbing behavior period (seconds) of minutes 0-5 (5 minutes) were measured. […]

Read-outs that look alike come from different tables or passages of the source.

The IC50 is the point on the concentration scale where inhibition reaches its midpoint.

For the molecule `CCCN(CCC)[C@@H]1CCc2cccc(O)c2C1` [8-OH-DPAT, (R)-(+)-8-hydroxy-2-(di-n-propylamino)tetraline], the inhibition in test [1] amounted to 32%.
Take `Cl.O=C1c2ccccc2OC=C(Cl)N1CCCCN1CC=C(c2ncccn2)CC1` [compound Ib, 3-chloro-4,5-dihydro-4-{4-[4-(2-pyrimidinyl)-1,2,3,6-tetrahydropyridin-1-yl]butyl}-1,4-benzoxazepin-5-one hydrochloride]: the rotational behavior duration entry in test [2] (0.3, 1 mg/kg i.p. repeated 2 weeks) is reported as “tended to be prolonged”. Moreover, the “hyperkinesia of the forelimbs” value in test [2] (0.3, 1 mg/kg i.p. repeated 2 weeks, 30 minutes and 1 hour after levodopa dosage) is given as “significantly inhibited”.
With `Cc1ccnc(C2=CCN(CCCCN3C(=O)c4ccccc4OC=C3Cl)CC2)n1.O=C(O)/C=C/C(=O)O` [compound Ic, 3-chloro-4,5-dihydro-4-(4-{4-[(4-methyl)-2-pyrimidinyl]-1,2,3,6-tetrahydropyridin-1-yl}butyl)-1,4-benzoxazepin-5-one fumarate], the “hyperkinesia of the forelimbs” value in test [2] (0.3 mg/kg i.p. repeated 2 weeks, 30 minutes after levodopa dosage) is on record as “significantly inhibited”; in test [2] (1.0 mg/kg i.p. repeated 2 weeks, 30 minutes and 1 hour after levodopa dosage) it was “significantly inhibited”. In addition, the rotational behavior duration entry in test [2] (1.0 mg/kg i.p. repeated 2 weeks) is reported as “significantly prolonged”.
For the molecule `CNCCCN1c2ccccc2CCc2ccccc21` [desipramine], the climbing behavior period entry in test [3] is on record as “significant increase”. In addition, the immobility period result in test [3] (minutes 0-5 on day 2) is reported as “significant shortening of the immobility period”. In addition, in test [4], the “amount of locomotor activity” value is given as “decline”.
Consider `O=C1c2ccccc2S(=O)(=O)N1CCCCN1CCN(c2ncccn2)CC1` [ipsapirone], for which, in test [1] (forskolin (10 μM) stimulated, rat hippocampus membranes, read-out: IC50 of adenylate cyclase inhibition (for the maximum reaction)), the half-maximal inhibitory concentration (IC50) amounted to 39 nM. Moreover, in test [1] (forskolin (10 μM) stimulus = 100%, rat hippocampus membranes), the inhibition was found to be 19%.
